# From patent US7465857B1, “Glyphosate tolerant perennial ryegrass” (priority 2004, dated 2008)
# Like-named read-outs stand apart in the source and are kept apart here.
# What was measured:
# [1] = tested on: EK-2703 (BAR Lp 2703); format: in vivo, Lolium perenne; conditions: Average June/July 1998, 9=completely green
# Experimental: The mean turf color rating for the BAR LP 2703 variety in this perennial ryegrass turf trial that was seeded in the spring of 1998 (at 16 kg/ha) in Wolfheze was 7.6 in June/July 1998 (9=completely green).
# [2] = tested on: BAR Lp 2703; format: in vivo, Lolium perenne; conditions: 40 days after first application, scale 1-9, 9=perfect turf
# Excerpt: (§1) This example provides methods and results of field trials in which the glyphosate tolerance characteristics of BAR Lp 2703 were examined and compared with Peak perennial ryegrass in Florence, S.C.
# (§2) Peak and LP2703 perennial ryegrasses were overseeded at 350 lb/acre on dormant Bermuda grass base on Oct. 7, 2003. Turf quality was rated 7 times between Nov. 10, 2003 and Mar. 2, 2004. Turf quality fluctuated between 6.0 and 7.5 with changes in weather and fertilization (rated on a scale of 1-9 with 1=bare soil and 9=perfect turf).
# (§3) Experimental treatments were 0, 3, 5, 6, 8, 10, and 16 ounces Roundup PROS per acre. One application of each treatment was applied on Mar. 12, 2004 to plots 3 feet wide by 6 feet long. The 3 and 6 oz/acre treatments were applied a second time on Mar. 28, 2004. There were two replications of each treatment applied to each cultivar. Applications were made in 2 gallons of water per 1000 square feet with a CO2-charged backpack sprayer.
# (§4) Turf damage was rated on a scale of 0-9 with 0=no damage and 9=complete damage 7, 14, and 21 days after the first spray. Damage was not evident prior to 7 days.
# (§5) The ratings shown in Table 10 were obtained 40 days after the first application of glyphosate (24 days after 2nd application).
# [3] = tested on: Peak; test: Field trial Florence, S.C.: glyphosate tolerance, turf damage and turf quality; format: in vivo, perennial ryegrass; conditions: 40 days after first application, scale 1-9, 9=perfect turf
# Excerpt: as §1, §2, §3, §4, §5
structure (smiles),measurement,setting,value
"O=C(O)CNCP(=O)(O)O [Glyphosate, N-(phosphonomethyl) glycine]",Turf Color After Spraying,[1],7.6
same,Turf quality ratings,[2]; 3 oz/acre twice,6.4
same,Turf quality ratings,[2]; 5 oz/acre,7.3
same,Turf quality ratings,[2]; 6 oz/acre twice,5.8
same,Turf quality ratings,[2]; 8 oz/acre,7.8
same,Turf quality ratings,[2]; 10 oz/acre,8.0
same,Turf quality ratings,[2]; 16 oz/acre,6.5
same,Turf quality ratings,[3]; 3 oz/acre twice,5.4
same,Turf quality ratings,[3]; 5 oz/acre,6.8
same,Turf quality ratings,[3]; 6 oz/acre twice,2.5
same,Turf quality ratings,[3]; 8 oz/acre,7.7
same,Turf quality ratings,[3]; 10 oz/acre,7.0
same,Turf quality ratings,[3]; 16 oz/acre,5.9
